Laboratory results reported in patent publication US20250019410A1, “PROCESS FOR THE PREPARATION OF TIRZEPATIDE OR PHARMACEUTICALLY ACCEPTABLE SALT THEREOF” (Sun Pharmaceutical Industries Ltd., priority 2021, published 2025).

Format: physicochemical
Experimental: The solubility of the salts in water (see Table 3), methanol (see Table 4) and phosphate buffer (see Table 5) were tested.

**Q.** With `CC[C@H](C)[C@H](NC(=O)[C@H](CC(C)C)NC(=O)[C@H](Cc1c[nH]c2ccccc12)NC(=O)[C@H](CCC(N)=O)NC(=O)[C@@H](NC(=O)[C@H](Cc1ccccc1)NC(=O)[C@H](C)NC(=O)[C@H](CCCCNC(=O)COCCOCCNC(=O)COCCOCCNC(=O)CC[C@H](NC(=O)CCCCCCCCCCCCCCCCCCC(=O)O)C(=O)O)NC(=O)[C@H](CCC(N)=O)NC(=O)[C@H](C)NC(=O)[C@@H](NC(=O)[C@H](CCCCN)NC(=O)[C@H](CC(=O)O)NC(=O)[C@H](CC(C)C)NC(=O)C(C)(C)NC(=O)[C@@H](NC(=O)[C@H](CO)NC(=O)[C@H](Cc1ccc(O)cc1)NC(=O)[C@H](CC(=O)O)NC(=O)[C@H](CO)NC(=O)[C@@H](NC(=O)[C@H](Cc1ccccc1)NC(=O)[C@@H](NC(=O)CNC(=O)[C@H](CCC(=O)O)NC(=O)C(C)(C)NC(=O)[C@@H](N)Cc1ccc(O)cc1)[C@@H](C)O)[C@@H](C)O)[C@@H](C)CC)[C@@H](C)CC)C(C)C)C(=O)N[C@@H](C)C(=O)NCC(=O)NCC(=O)N1CCC[C@H]1C(=O)N[C@@H](CO)C(=O)N[C@@H](CO)C(=O)NCC(=O)N[C@@H](C)C(=O)N1CCC[C@H]1C(=O)N1CCC[C@H]1C(=O)N1CCC[C@H]1C(=O)N[C@@H](CO)C(N)=O` [Acetic acid content - 1.06%] as the compound, how does the “Solubility - in Water (descriptive term only)” value read?
**A.** Practically insoluble in water

**Q.** With `CC[C@H](C)[C@H](NC(=O)[C@H](CC(C)C)NC(=O)[C@H](Cc1c[nH]c2ccccc12)NC(=O)[C@H](CCC(N)=O)NC(=O)[C@@H](NC(=O)[C@H](Cc1ccccc1)NC(=O)[C@H](C)NC(=O)[C@H](CCCCNC(=O)COCCOCCNC(=O)COCCOCCNC(=O)CC[C@H](NC(=O)CCCCCCCCCCCCCCCCCCC(=O)O)C(=O)O)NC(=O)[C@H](CCC(N)=O)NC(=O)[C@H](C)NC(=O)[C@@H](NC(=O)[C@H](CCCCN)NC(=O)[C@H](CC(=O)O)NC(=O)[C@H](CC(C)C)NC(=O)C(C)(C)NC(=O)[C@@H](NC(=O)[C@H](CO)NC(=O)[C@H](Cc1ccc(O)cc1)NC(=O)[C@H](CC(=O)O)NC(=O)[C@H](CO)NC(=O)[C@@H](NC(=O)[C@H](Cc1ccccc1)NC(=O)[C@@H](NC(=O)CNC(=O)[C@H](CCC(=O)O)NC(=O)C(C)(C)NC(=O)[C@@H](N)Cc1ccc(O)cc1)[C@@H](C)O)[C@@H](C)O)[C@@H](C)CC)[C@@H](C)CC)C(C)C)C(=O)N[C@@H](C)C(=O)NCC(=O)NCC(=O)N1CCC[C@H]1C(=O)N[C@@H](CO)C(=O)N[C@@H](CO)C(=O)NCC(=O)N[C@@H](C)C(=O)N1CCC[C@H]1C(=O)N1CCC[C@H]1C(=O)N1CCC[C@H]1C(=O)N[C@@H](CO)C(N)=O` [Ammonium content- 0.25%] as the compound, how does the “Solubility - in Water (descriptive term only)” value read?
**A.** practically insoluble in water
